Test results reported in PubChem BioAssay (NCI).
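GI50: concentration for 50% inhibition of growth. TGI: concentration producing complete growth inhibition.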

What was measured:
Test in all cases: NCI-60 cell line screen, 384-well format
786-0 renal = tested on: 786-0 renal
A498 renal = tested on: A498 renal
A549 NSCLC = tested on: A549 NSCLC
ACHN renal = tested on: ACHN renal
BT-549 breast = tested on: BT-549 breast
CAKI-1 renal = tested on: CAKI-1 renal
CCRF-CEM leukemia = tested on: CCRF-CEM leukemia
HCC-2998 colon = tested on: HCC-2998 colon
HCT-116 colon = tested on: HCT-116 colon
HCT-15 colon = tested on: HCT-15 colon
HL-60(TB) leukemia = tested on: HL-60(TB) leukemia
HOP-92 NSCLC = tested on: HOP-92 NSCLC
HS 578T breast = tested on: HS 578T breast
HT29 colon = tested on: HT29 colon
K-562 leukemia = tested on: K-562 leukemia
LOX IMVI melanoma = tested on: LOX IMVI melanoma
M14 melanoma = tested on: M14 melanoma
MALME-3M melanoma = tested on: MALME-3M melanoma
MCF7 breast = tested on: MCF7 breast
MDA-MB-231 breast = tested on: MDA-MB-231 breast
MDA-MB-468 breast = tested on: MDA-MB-468 breast
MOLT-4 leukemia = tested on: MOLT-4 leukemia
NCI-H226 lung = tested on: NCI-H226 lung
NCI-H322M lung = tested on: NCI-H322M lung
NCI-H460 NSCLC = tested on: NCI-H460 NSCLC
NCI-H522 lung = tested on: NCI-H522 lung
NCI/ADR-RES ovarian = tested on: NCI/ADR-RES ovarian
OVCAR-3 ovarian = tested on: OVCAR-3 ovarian
OVCAR-4 ovarian = tested on: OVCAR-4 ovarian
OVCAR-5 ovarian = tested on: OVCAR-5 ovarian
PC-3 prostate = tested on: PC-3 prostate
RPMI-8226 leukemia = tested on: RPMI-8226 leukemia
RXF 393 renal = tested on: RXF 393 renal
SF-295 CNS = tested on: SF-295 CNS
SF-539 CNS = tested on: SF-539 CNS
SK-MEL-2 melanoma = tested on: SK-MEL-2 melanoma
SK-MEL-28 melanoma = tested on: SK-MEL-28 melanoma
SK-MEL-5 melanoma = tested on: SK-MEL-5 melanoma
SK-OV-3 ovarian = tested on: SK-OV-3 ovarian
SNB-19 CNS = tested on: SNB-19 CNS
SNB-75 CNS = tested on: SNB-75 CNS
SR leukemia = tested on: SR leukemia
SW-620 colon = tested on: SW-620 colon
T-47D breast = tested on: T-47D breast
TK-10 renal = tested on: TK-10 renal
UACC-257 melanoma = tested on: UACC-257 melanoma
UO-31 renal = tested on: UO-31 renal

C=CC(=O)Nc1cc(Nc2nccc(-c3cn(C)c4ccccc34)n2)c(OC)cc1N(C)CCN(C)C
GI50 ([…]-0 renal): 1310 nM | TGI (786-0 renal): 2600 nM | GI50 (A498 renal): 1120 nM | TGI (A498 renal): 2530 nM | GI50 (A549 NSCLC): 1340 nM | TGI (A549 NSCLC): 3590 nM | GI50 (ACHN renal): 453 nM | TGI (ACHN renal): 2210 nM | GI50 (BT-549 breast): 1330 nM | TGI (BT-549 breast): 2620 nM | GI50 (CAKI-1 renal): 703 nM | TGI (CAKI-1 renal): 2080 nM | GI50 (CCRF-CEM leukemia): 1390 nM | TGI (CCRF-CEM leukemia): 2690 nM | GI50 (HCC-2998 colon): 767 nM | TGI (HCC-2998 colon): 2000 nM | GI50 (HCT-116 colon): 1610 nM | TGI (HCT-116 colon): 3020 nM | GI50 (HCT-15 colon): 1250 nM | TGI (HCT-15 colon): 2600 nM | GI50 (HL-60(TB) leukemia): 756 nM | TGI (HL-60(TB) leukemia): 1940 nM | GI50 (HOP-92 NSCLC): 1150 nM | TGI (HOP-92 NSCLC): 2380 nM | GI50 (HS 578T breast): 1550 nM | TGI (HS 578T breast): 3040 nM | GI50 (HT29 colon): 1610 nM | TGI (HT29 colon): 2990 nM | GI50 (K-562 leukemia): 1160 nM | TGI (K-562 leukemia): 2390 nM | GI50 (LOX IMVI melanoma): 2060 nM | TGI (LOX IMVI melanoma): 3500 nM | GI50 (M14 melanoma): 1960 nM | TGI (M14 melanoma): 3390 nM | GI50 (MALME-3M melanoma): 1150 nM | TGI (MALME-3M melanoma): 2540 nM | GI50 (MCF7 breast): 1180 nM | TGI (MCF7 breast): 2580 nM | GI50 (MDA-MB-231 breast): 1790 nM | TGI (MDA-MB-231 breast): 3210 nM | GI50 (MDA-MB-468 breast): 37.8 nM | TGI (MDA-MB-468 breast): 189 nM | GI50 (MOLT-4 leukemia): 921 nM | TGI (MOLT-4 leukemia): 2150 nM | GI50 (NCI-H226 lung): 863 nM | TGI (NCI-H226 lung): 2200 nM | GI50 (NCI-H322M lung): 179 nM | TGI (NCI-H322M lung): 1120 nM | GI50 (NCI-H460 NSCLC): 1760 nM | TGI (NCI-H460 NSCLC): 3190 nM | GI50 (NCI-H522 lung): 49.5 nM | TGI (NCI-H522 lung): 843 nM | GI50 (NCI/ADR-RES ovarian): 1130 nM | TGI (NCI/ADR-RES ovarian): 2370 nM | GI50 (OVCAR-3 ovarian): 1130 nM | TGI (OVCAR-3 ovarian): 2460 nM | GI50 (OVCAR-4 ovarian): 2020 nM | TGI (OVCAR-4 ovarian): 3540 nM | GI50 (OVCAR-5 ovarian): 1620 nM | TGI (OVCAR-5 ovarian): 3930 nM | GI50 (PC-3 prostate): 1610 nM | TGI (PC-3 prostate): 3090 nM | GI50 (RPMI-8226 leukemia): 980 nM | TGI (RPMI-8226 leukemia): 2230 nM | GI50 (RXF 393 renal): 806 nM | TGI (RXF 393 renal): 2150 nM | GI50 (SF-295 CNS): 2620 nM | TGI (SF-295 CNS): 6330 nM | GI50 (SF-539 CNS): 1440 nM | TGI (SF-539 CNS): 2760 nM | GI50 (SK-MEL-2 melanoma): 354 nM | TGI (SK-MEL-2 melanoma): 1200 nM | GI50 (SK-MEL-28 melanoma): 1660 nM | TGI (SK-MEL-28 melanoma): 3040 nM | GI50 (SK-MEL-5 melanoma): 1220 nM | TGI (SK-MEL-5 melanoma): 2230 nM | GI50 (SK-OV-3 ovarian): 1740 nM | TGI (SK-OV-3 ovarian): 5730 nM | GI50 (SNB-19 CNS): 3020 nM | TGI (SNB-19 CNS): 8810 nM | GI50 (SNB-75 CNS): 2710 nM | TGI (SNB-75 CNS): 6410 nM | GI50 (SR leukemia): 602 nM | TGI (SR leukemia): 1290 nM | GI50 (SW-620 colon): 1760 nM | TGI (SW-620 colon): 3180 nM | GI50 (T-47D breast): 957 nM | TGI (T-47D breast): 2380 nM | GI50 (TK-10 renal): 317 nM | TGI (TK-10 renal): 1770 nM | GI50 (UACC-257 melanoma): 840 nM | TGI (UACC-257 melanoma): 1580 nM | GI50 (UO-31 renal): 746 nM | TGI (UO-31 renal): 2120 nM

Cn1cc(-c2cc3c(N4CCN(c5ncc([C@@](C)(N)c6ccc(F)cc6)cn5)CC4)ncnn3c2)cn1
GI50 ([…]-0 renal): 1760 nM | TGI (786-0 renal): 3370 nM | GI50 (A498 renal): 3120 nM | TGI (A498 renal): 9790 nM | GI50 (A549 NSCLC): 4210 nM | TGI (A549 NSCLC): 36500 nM | GI50 (ACHN renal): 3700 nM | TGI (ACHN renal): 13900 nM | GI50 (BT-549 breast): 2520 nM | TGI (BT-549 breast): 7850 nM | GI50 (CAKI-1 renal): 3710 nM | TGI (CAKI-1 renal): 17600 nM | GI50 (CCRF-CEM leukemia): 2780 nM | TGI (CCRF-CEM leukemia): 10200 nM | GI50 (HCC-2998 colon): 2150 nM | TGI (HCC-2998 colon): 3820 nM | GI50 (HCT-116 colon): 3390 nM | TGI (HCT-116 colon): 12300 nM | GI50 (HCT-15 colon): 2970 nM | TGI (HCT-15 colon): 20200 nM | GI50 (HL-60(TB) leukemia): 2240 nM | TGI (HL-60(TB) leukemia): 4940 nM | GI50 (HOP-92 NSCLC): 2660 nM | TGI (HOP-92 NSCLC): 10200 nM | GI50 (HS 578T breast): 1750 nM | TGI (HS 578T breast): 5830 nM | GI50 (HT29 colon): 2650 nM | TGI (HT29 colon): > 26200 nM | GI50 (K-562 leukemia): 1120 nM | TGI (K-562 leukemia): 2790 nM | GI50 (LOX IMVI melanoma): 881 nM | TGI (LOX IMVI melanoma): 3470 nM | GI50 (M14 melanoma): 4420 nM | TGI (M14 melanoma): 19200 nM | GI50 (MALME-3M melanoma): 2460 nM | TGI (MALME-3M melanoma): 5790 nM | GI50 (MCF7 breast): 2310 nM | TGI (MCF7 breast): 8700 nM | GI50 (MDA-MB-231 breast): 3470 nM | TGI (MDA-MB-231 breast): > 35400 nM | GI50 (MDA-MB-468 breast): 1120 nM | TGI (MDA-MB-468 breast): 3030 nM | GI50 (MOLT-4 leukemia): 1380 nM | TGI (MOLT-4 leukemia): 2730 nM | GI50 (NCI-H226 lung): 3510 nM | TGI (NCI-H226 lung): 28200 nM | GI50 (NCI-H322M lung): 6680 nM | TGI (NCI-H322M lung): 21500 nM | GI50 (NCI-H460 NSCLC): 3730 nM | TGI (NCI-H460 NSCLC): 12500 nM | GI50 (NCI-H522 lung): 2410 nM | TGI (NCI-H522 lung): 23300 nM | GI50 (NCI/ADR-RES ovarian): 3190 nM | TGI (NCI/ADR-RES ovarian): 17900 nM | GI50 (OVCAR-3 ovarian): 6110 nM | TGI (OVCAR-3 ovarian): 18000 nM | GI50 (OVCAR-4 ovarian): 2960 nM | TGI (OVCAR-4 ovarian): 12200 nM | GI50 (OVCAR-5 ovarian): 5610 nM | TGI (OVCAR-5 ovarian): 29500 nM | GI50 (PC-3 prostate): 2860 nM | TGI (PC-3 prostate): 13900 nM | GI50 (RPMI-8226 leukemia): 1590 nM | TGI (RPMI-8226 leukemia): 3210 nM | GI50 (RXF 393 renal): 1030 nM | TGI (RXF 393 renal): 3020 nM | GI50 (SF-295 CNS): 3720 nM | TGI (SF-295 CNS): 19900 nM | GI50 (SF-539 CNS): 2170 nM | TGI (SF-539 CNS): 12200 nM | GI50 (SK-MEL-2 melanoma): 3840 nM | TGI (SK-MEL-2 melanoma): 16800 nM | GI50 (SK-MEL-28 melanoma): 6900 nM | TGI (SK-MEL-28 melanoma): 19700 nM | GI50 (SK-MEL-5 melanoma): 1850 nM | TGI (SK-MEL-5 melanoma): 3980 nM | GI50 (SK-OV-3 ovarian): 7900 nM | TGI (SK-OV-3 ovarian): 52700 nM | GI50 (SNB-19 CNS): 5930 nM | TGI (SNB-19 CNS): 24400 nM | GI50 (SNB-75 CNS): 2160 nM | TGI (SNB-75 CNS): 7030 nM | GI50 (SR leukemia): 1580 nM | TGI (SR leukemia): 3020 nM | GI50 (SW-620 colon): 2970 nM | TGI (SW-620 colon): 11500 nM | GI50 (T-47D breast): 1490 nM | TGI (T-47D breast): 6160 nM | GI50 (TK-10 renal): 7290 nM | TGI (TK-10 renal): 48200 nM | GI50 (UACC-257 melanoma): 2100 nM | TGI (UACC-257 melanoma): 4760 nM | GI50 (UO-31 renal): 3600 nM | TGI (UO-31 renal): 14700 nM
